Measurements as given in publication PMC8272136, “Discovery of New Pyrazolopyridine, Furopyridine, and Pyridine Derivatives as CDK2 Inhibitors: Design, Synthesis, Docking Studies, and Anti-Proliferative Activity” (Molecules, 2021).
Values joined by “and” are separate entries in the source; they are usually repeats but may differ in a detail not shown here. Equal values may be shown once. Read-outs that look alike come from different tables or passages of the source.

How the values were obtained:
[1] = system: HCT-116 (human colorectal carcinoma) cells; test: MTT cytotoxicity assay, HCT-116; type: cell-based; conditions: 48 h, read-out: IC50 (µM) ± SD HCT-116
Procedure: (§1) In this study, ten compounds were examined in vitro for their activities against HCT-116, MCF-7, HepG2, and A549 human cancer cells using the MTT assay. The percentages of intact cells were calculated and compared to those of the control. The activities of these compounds against the four cell lines were compared to the activity of doxorubicin as well. […] In order to study the efficacy of the synthesized compounds, a comparison of the cytotoxic effect of each compound has been related to the cytotoxicity of the reference drug as follows.
(§2) Cell cultures of HCT-116 (human colorectal carcinoma), MCF-7 (human breast adenocarcinoma), HepG2 (human hepatocellular carcinoma), and A549 (human lung carcinoma) cell lines were purchased from the American Type Culture Collection (Rockville, MD, USA) and maintained in DMEM medium that was supplemented with 10% heat-inactivated FBS (fetal bovine serum), 100 U/mL penicillin, and […] streptomycin. The cells were grown at 37 °C in a humidified atmosphere of 5% CO2.
(§3) The anticancer activity against HCT-116, HepG2, A549, and MCF-7 human cancer cell lines was estimated using the 3-[4,5-dimethyl-2-thiazolyl)-2,5-diphenyl-2H-tetrazolium bromide (MTT) assay, which is based on the reduction of the tetrazolium salt by mitochondrial dehydrogenases in viable cells. Cells were dispensed in a 96-well sterile microplate (5 × 10^4 cells/well) and incubated at 37 °C with a series of different concentrations, in DMSO, of each tested compound or doxorubicin (positive control) for 48 h in a serum-free medium prior to the MTT assay. After incubation, media were carefully removed, and 40 µL of MTT (2.5 mg/mL) were added to each well and then incubated for an additional 4 h. The purple formazan dye crystals were solubilized by the addition of 200 µL of DMSO. The absorbance was measured at 570 nm using a Spectra Max Paradigm Multi-Mode microplate reader. The relative cell viability was expressed as the mean percentage of viable cells compared to the untreated control cells. All experiments were conducted in triplicate and repeated on three different days. All the values were represented as mean ± SD. IC50s were determined by probit analysis by SPSS Incprobit analysis (IBM Corp., Armonk, NY, USA).

[2] = molecular target: T1, CDK2/cyclin A2 protein kinase (Homo sapiens, UniProt P24941); set-up: method as in PMID 33390512, PMID 22119131; conditions: external test set of QSAR model, reported compounds V, VI; read-out: Experimental Activity (IC50/μM); cited from earlier work
[3] = system: HepG2 (human hepatocellular carcinoma) cells; test: MTT cytotoxicity assay, HepG2; type: cell-based; conditions: 48 h, read-out: IC50 (µM) ± SD HepG2
Procedure: as §1, §2, §3

[4] = molecular target: T1, CDK2/cyclin A2 protein kinase; test: CDK2/cyclin A2 kinase assay (Promega Kinase-Glo Plus luminescence kit); type: biochemical
Excerpt: It measures kinase activity by quantitating the amount of ATP remaining in solution following a kinase reaction. The luminescent signal from the assay is correlated with the amount of ATP present and is inversely correlated with the amount of kinase activity. […] The computer software Graphpad Prism was used for analyzing the luminescence data. The difference between luminescence intensities in the absence of CDK2/cyclin A2 protein kinase (Lut) and in the presence of kinase (Luc) was defined as 100% activity (Lut − Luc). Using luminescence signal (Lu) in the presence of the compound, the percentage of activity was calculated as: % activity = {(Lut − Lu)/(Lut − Luc)} × 100%, where Lu = the luminescence intensity in the presence of the compound.

[5] = system: MCF-7 (human breast adenocarcinoma) cells; test: MTT cytotoxicity assay, MCF-7; type: cell-based; conditions: MCF7, 48 h, read-out: IC50 (µM) ± SD MCF-7
Procedure: as §1, §2, §3

[6] = system: A549 (human lung carcinoma) cells; test: MTT cytotoxicity assay, A549; type: cell-based; conditions: 48 h, read-out: IC50 (µM) ± SD A549
Procedure: as §1, §2, §3

[7] = CDK2/cyclin A2, Kinase-Glo Plus luminescence, read-out: CDK2 IC50 (µM) ± SD

| SMILES | IC50 [4, 7] | melting point [°C] | IC50 ([4]; external test set of QSAR model, compound 8, CDK2, read-out: Experimental Activity (IC50/μM)) [µM] | IC50 [1] [µM] | IC50 [2] [µM] | IC50 [3] [µM] | IC50 [5] [µM] | IC50 [6] [µM] |
| --- | --- | --- | --- | --- | --- | --- | --- | --- |
| COc1cccc2c1C(=O)c1c(O)c3c(c(O)c1C2=O)C[C@@](O)(C(=O)CO)C[C@@H]3O[C@H]1C[C@H](N)[C@H](O)[C@H](C)O1 [Doxorubicin, reference compound] |  |  |  | 40 ± 3.9 |  |  |  |  |
| N#Cc1c(N)nc2[nH]c(=S)sc2c1-c1cccs1 [VI] |  |  |  |  | 0.139 |  |  |  |
| Oc1nc(-c2cccs2)c2sc(=S)[nH]c2n1 [V] |  |  |  |  | 0.743 |  |  |  |
| N#Cc1c(-c2cccs2)cc(-c2ccc3ccccc3c2)[nH]c1=O [compound 1, 6-(naphthalen-2-yl)-2-oxo-4-(thiophen-2-yl)-1,2-dihydropyridine-3-carbonitrile] | 0.57 ± 0.1 µM |  |  | 39.1 ± 4.2 |  | 27.9 ± 3.1 | 47 ± 4.5 | 60.6 ± 4.8 |
| N#Cc1c(-c2cccs2)cc(-c2ccc3ccccc3c2)nc1Cl [compound 4, 2-chloro-6-(naphthalen-2-yl)-4-(thiophen-2-yl)nicotinonitrile] | 0.24 µM and 0.236 µM |  |  | 45.9 ± 4.1 |  | 42.9 ± 3.9 | 46.2 ± 4.1 | 67.2 ± 5.1 |
| COc1nc(-c2ccc3ccccc3c2)cc(-c2cccs2)c1C#N [compound 5, 2-Methoxy-6-(naphthalen-2-yl)-4-(thiophen-2-yl)nicotinonitrile] | 3.53 ± 0.2 µM | 125 to 126 |  | 33.8 ± 3.5 |  | 27.2 ± 3.1 | 55.5 ± 4.5 | 47.6 ± 4.5 |
| Nc1n[nH]c2nc(-c3ccc4ccccc4c3)cc(-c3cccs3)c12 [compound 8, 6-(Naphthalen-2-yl)-4-(thiophen-2-yl)-1H-pyrazolo[3,4-b]pyridin-3-amine] | 0.65 µM and 0.651 µM | 175 to 176 | 0.651 | 33.7 ± 3.3 |  | 29.1 ± 3.5 | 19.3 ± 2.1 | 43.8 ± 4.1 |
| CCOC(=O)COc1nc(-c2ccc3ccccc3c2)cc(-c2cccs2)c1C#N [compound 13] | 4.45 ± 0.2 µM |  |  | 32.4 ± 3.1 |  | 30.2 ± 3.7 | 37.6 ± 3.5 | 45.9 ± 4.3 |
| CCOC(=O)c1oc2nc(-c3ccc4ccccc4c3)cc(-c3cccs3)c2c1N [compound 14, Ethyl-3-amino-6-(naphthalen-2-yl)-4-(thiophen-2-yl)furo[2,3-b]pyridine-2-carboxylate] | 0.93 µM and 0.928 µM | 185 to 186 |  | 31.3 ± 3.3 |  | 27.9 ± 3.5 | 26.1 ± 3.9 | 56.5 ± 4.8 |

Further lines, with some results ahead:

| IC50 [4, 7] | melting point [°C] | IC50 ([4]; external test set of QSAR model, compound 8, CDK2, read-out: Experimental Activity (IC50/μM)) [µM] | SMILES | IC50 [1] [µM] | IC50 [2] [µM] | IC50 [3] [µM] | IC50 [5] [µM] | IC50 [6] [µM] |
| --- | --- | --- | --- | --- | --- | --- | --- | --- |
| 1.79 ± 0.1 µM | 165 to 166 |  | N#Cc1c(-c2cccs2)cc(-c2ccc3ccccc3c2)nc1OC(=O)CCl [compound 2, 3-Cyano-6-(naphthalen-2-yl)-4-(thiophen-2-yl)pyridin-2-yl 2-chloroacetate] | 43.5 ± 4.5 |  | 29.4 ± 3.5 | 21.3 ± 3.1 | 70.7 ± 4.1 |
| 1.01 ± 0.1 µM | 172 to 173 |  | N#Cc1c(-c2cccs2)cc(-c2ccc3ccccc3c2)nc1OC1=NC(=S)NC1 [compound 3, 6-(Naphthalen-2-yl)-4-(thiophen-2-yl)-2-((2-thioxo-2,5-dihydro-1H-imidazol-4-yl)oxy)nicotinonitrile] | 49 ± 5.1 |  | 44.8 ± 4.1 | 37.3 ± 4.1 | 57.4 ± 4.5 |
|  | 130 to 131 |  | N#Cc1c(-c2cccs2)cc(-c2ccc3ccccc3c2)nc1Nc1ccccc1 [compound 6, 6-(Naphthalen-2-yl)-2-(phenylamino)-4-(thiophen-2-yl)nicotinonitrile] |  |  |  |  |  |
| 1.27 ± 0.1 µM |  |  | N#Cc1c(-c2cccs2)cc(-c2ccc3ccccc3c2)[nH]c1=S [compound 7] | 37.8 ± 3.9 |  | 22.7 ± 2.9 | 27.4 ± 2.4 | 36.8 ± 4.1 |
| 0.5 µM and 0.504 µM | 160 to 161 |  | N#Cc1c(-c2cccs2)cc(-c2ccc3ccccc3c2)nc1SC(=O)CCl [compound 11, S-(3-Cyano-6-(naphthalen-2-yl)-4-(thiophen-2-yl)pyridin-2-yl)2-chloroethanethioate] | 31.7 ± 3.5 |  | 27.6 ± 3.3 | 46.4 ± 4.3 | 56.9 ± 4.6 |
|  | 197 to 198 |  | O=c1[nH]cnc2c1oc1nc(-c3ccc4ccccc4c3)cc(-c3cccs3)c12 [compound 15, 7-(Naphthalen-2-yl)-9-(thiophen-2-yl)pyrido[3′,2′:4,5]furo[3,2-d]pyrimidin-4(3H)-one] |  |  |  |  |  |
